Consider 18 compounds from patent US20230340530A1, “Methods of Protecting RNA” (Pfizer Inc., priority 2020, published 2023).

Assay [1] is described as follows: RNA FP protection counter screen assay. The following applies: counter screen for false positives, n=2. The procedure:
(§1) In the FP assay, fluorophores were added to the 3′ and 5′ end of a short RNA construct and incubated with a boron compound under accelerated degradation conditions (e.g., base and temperature). For intact RNA, the 2 fluorophores come together to produce fluorescence. When the RNA is cleaved, there is no fluorescence. […] The counter screen assay run for each boron compound was used as control.
A general note: A counterscreen serves to expose hits that act by an unwanted route or on another target.

Assay [2] relates to random 30nt RNA oligonucleotide with a 5′ Cy5 fluorophore and a 3′ Biotin (SEQ ID NO: 9). Put plainly: RNA Fluorescence Polarization (FP) protection assay. It counts as biochemical. The following applies: 62.5 mM NaOH, 18 hours, dose response 600 µM top dose, n=2. On the procedure:
as §1
The RNA FP protection assay used a random 30nt RNA oligonucleotide (oligo) with a 5′ Cy5 fluorophore and a 3′ Biotin of the following sequence: 5′-Cy5-
In the presence of excess streptavidin, the RNA oligo will bind to the streptavidin and rotational spin will decrease causing an increase in the mP value in a fluorescence polarization (FP) measurement. When the RNA backbone is hydrolyzed under base mediated hydrolysis with increasing pH the Cy5 fluorophore will be free to spin faster lowering the mP value in an FP measurement. Compounds that inhibit base mediated hydrolysis will prevent release of Cy5 and reduction in mP value. […]
With regard to the plots provided in FIGS. 2-7, the detection for this assay used the fluorescent polarization of the fluorescent dye used in the assay. When a fluorescent dye has a high mass the spin rate is low and when the fluorescence is measured using two polarizing filters one parallel and one perpendicular the amount of spin can be measured. The unit Polarization was measured as mili-Polarization (mP). A dye with high mass will have a high mP reading and low mass will have a low mP reading. Streptavidin was added to bind to the biotin-RNA-Cy5 oligo to achieve high mass and the high mP reading. […] When a boron compound dose provides 100% activity, the RNA is intact/protected and the mP value measured is high. […]
To all wells in a compound spotted assay ready plate (Coming #3820) were added 2.5 µL of a 2x Biotin-RNA-Cy5 (Genescript custom #SC1518) and Streptavidin (ThermoFisher#21135) made in nuclease free water, incubated for 20 minutes, 2.5 µL of 50 mM Tris pH 7.2 was added to the positive control wells, and 2.5 µL 125 mM NaOH was added to all other wells. […]
In general terms: Fluorescence polarisation rises when a labelled molecule tumbles more slowly, as on binding a larger partner.

The target of assay [3] is RNA samples (Chi18 or HCV IRES). The experiment in a line: Droplet Digital Polymerase Chain Reaction (ddPCR) assay of RNA protection. It counts as biochemical. Conditions: 50 mM Tris buffer pH 11.4, 16 hrs at 30° C. for Chi18 or 42° C. for HCV; table does not say which RNA; 600 µM to 0.018 µM compound, 2% DMSO; read-out: EC50 Values Obtained from the ddPCR Assay. The procedure: The ddPCR assays measured RNA integrity by converting intact RNA to cDNA by reverse transcription, then performing digital PCR in thousands of nanoliter-sized droplets for each sample. PCR was performed within each droplet, which allowed for more sensitive detection of subtle changes in RNA concentration compared to traditional PCR or qPCR. Additionally, primers/probes specific to the 5′ end of the RNA/cDNA transcript(s) were used to assess fragment integrity, i.e. degraded RNA had fewer 5′ positive droplets. The BioRad QX200 Droplet Digital PCR System was used for the ddPCR workflow.
RNA samples (Chi18 or HCV IRES) were diluted to 100 fg/µL in 50 mM Tris buffer pH 11.4. Boron compounds were tested in a dose-response format to determine EC50. A compound dilution plate that contained a 30 mM top concentration of compound in DMSO was serially (half-log) diluted 10 times. A quantity of 0.12 µL of this compound dilution plate was spotted into a 96-well PCR plate (Thermo). Sample RNAs were added (6 µL) and incubated with test compounds as described below. Final compound concentrations ranged from 600 µM to 0.018 µM in 2% DMSO.
For the degradation reaction, treated RNAs were incubated for 16 hrs at 30° C. for Chi18 samples or 42° C. for HCV samples. Upon completion of the degradation reaction, cDNA was made and ddPCR run for each sample (96 well plates). Positive 5′ droplet values were divided by the total accepted droplet values for each sample and a ratio value generated for each sample.
Data was imported into a database where percent (%) protection and compound EC50 were calculated and curated. […] EC50 was determined by using a four parameter logistic equation: Y=A+((B-A)/(1+(C/X)D)); where Y is percent protection, X is compound concentration, A and B are minimum and maximum asymptotes, respectively, C is EC50, and D is Hill slope.

As for `NCc1cc(C(F)(F)F)ccc1Oc1ccc2c(c1)COB2O` [PF-06967658, 5-(2-(aminomethyl)-4-(trifluoromethyl)phenoxy)be nzo[c][1,2]oxaborol-1 (3H)-ol], the “activity in the RNA FP protection counter screen” value in assay [1] is on record as “lack of activity”. In addition, the “ability of the boron compound to protect RNA from being cleaved/degraded (percent activity, FP)” value in assay [2] is given as “RNA protective effect”.
For `CC1(C)OB(C2(B3OC(C)(C)C(C)(C)O3)CCCCC2)OC1(C)C` [PF-07230998, 2,2′-(cyclohexane-1,1-diyl)bis(4,4,5,5-tetramethyl-1,3,2-dioxaborolane)] the same measures were “lack of activity” and “RNA protective effect”.
For `C[C@H]1c2c(NC(=O)c3ccc4c(c3)B(O)OC4(C)C)ccc(O)c2C(=O)C2=C(O)[C@]3(O)C(=O)C(C(N)=O)=C(O)[C@@H](N(C)C)[C@@H]3[C@@H](O)[C@@H]21` [PF-06968370, N-[(6aS,10S,10aR,11S,11aR, 12R)-8-carbamoyl-10-(dimethylamino)-4,6,6a,9,11-pentahydroxy-12-methyl-5,7-dioxo-5,6a,7,10,10a,11,11a,12-octahydrotetracen-1-yl]-1-hydroxy-3,3-dimethyl-1,3-dihydro-2,1-benzox aborole-6-carboxamide], the EC50 in assay [3] is 258 µM.
Consider `O=C(Nc1ccc2c(c1)B(O)OC2)c1ccccc1` [PF-06957640, N-(1-hydroxy-1,3-dihydro-2,1-benzoxaborol-6-yl)benzamide], for which the EC50 in assay [3] is 266 µM.
With `CC1(C)COC(c2cccc(B(Oc3cccc4cccnc34)c3cccc(F)c3)c2)=N1` [PF-06956596, quinolin-8-yl [3-(4,4-dimethyl-4,5-dihydro-1,3-oxazol-2-yl)phenyl](3-fluorophenyl)borinate], in assay [3], the EC50 amounted to 300 µM.
Regarding `CN1CCN(Cc2ccc(B(Oc3cccc4cccnc34)c3ccc(C#N)c(Cl)c3)cc2F)CC1` [PF-06956823, quinolin-8-yl (3-chloro-4-cyanophenyl){3-fluoro-4-[(4-methylpiperazin-1-yl)methyl]phenyl}borinate], in assay [3], the EC50 was 175 µM.
On the same count and under the same terms, the figure for `O=C(O)C[C@@H]1OB(O)c2cccc(B(O)O)c21` [PF-06961361, [(3S)-4-borono-1-hydroxy-1,3-dihydro-2,1-benzoxaborol-3-yl]acetic acid] is 226 µM; for `C[C@H]1c2ccc(NCCC(=O)Nc3ccc4c(c3)OCCOB4O)c(O)c2C(=O)C2=C(O)[C@]3(O)C(=O)C(C(N)=O)=C(O)[C@@H](N(C)C)[C@@H]3[C@@H](O)[C@@H]21` [PF-06968559, (4S,4aR,5S,5aR,6R,12aS)-4-(dimethylamino)-3,5,10,12,12a-pentahydroxy-9-({3-[(1-hydroxy-3,4-dihydro-1H-2,5,1-benzodioxaborepin-7-yl)amino]-3-oxopropyl}amino)-8-methyl-1,11-dioxo-1,4,4a,5,5a,6,11,12a-oc tahydrotetracene-2-carboxamide] it is 99.1 µM; for `CN(C)/C(O)=C/C1=[O+][B-](F)(F)Oc2cc(O)ccc21` [PF-03806704, {(2Z)-3-(dimethylamino)-3-hydroxy-1-[4-hydroxy-2-(hydroxy-kappaO)phenyl]prop-2-en-1-onato-kappaO}(difluorido)boron] it is 323 µM.
For the compound `CC1(C)OB(O)c2cc(C(=O)O)ccc21` [PF-06966741, 1-hydroxy-3,3-dimethyl-1,3-dihydrobenzo[c][1,2]oxabor ole-6-carboxylic acid], the “activity in the RNA FP protection counter screen” value in assay [1] is listed as “lack of activity”. In addition, the “ability of the boron compound to protect RNA from being cleaved/degraded (percent activity, FP)” value in assay [2] was “RNA protective effect”.
Turning to `O=C(OB(c1cccc(F)c1)c1cccc(F)c1)c1ncccc1O` [PF-06956417], in assay [3], the EC50 came out at 430 µM.
Still for that read-out and setting: the value for `CN(C)c1cc(NC(=O)CCNC(=O)c2ccc3c(c2)COB3O)c(O)c2c1C[C@H]1C[C@H]3[C@H](N(C)C)C(O)=C(C(N)=O)C(=O)[C@@]3(O)C(O)=C1C2=O` [PF-06967772, N-(3-{[(5aR,6aS,7S,10aS)-9-carbamoyl-4,7-bis(dimethylamino)-1,8,10a,11-tetrahydroxy-10,12-dioxo-5,5a,6,6a,7,10,10a,12-octahydrotetracen-2-yl]amino}-3-oxopropyl)-1-hydroxy-1,3-dihydro-2,1-benzoxaborole-5-carboxamide] was 286 µM; that for `CN1CCN(Cc2cccc(B(Oc3cccc4cccnc34)c3ccc(C#N)cc3)c2)CC1` [PF-06957315, quinolin-8-yl (4-cyanophenyl){3-[(4-methylpiperazin-1-yl)methyl]phenyl}borinate] was 253 µM.
Same read-out and setting: the value for `COC(=O)c1cc(B2OC(C)(C)C(C)(C)O2)cc(C(=O)OC)n1` [PHA-00804319, dimethyl 4-(4,4,5,5-tetramethyl-1,3,2-dioxaborolan-2-yl)pyridine-2,6-dicarboxylate] was 214 µM; that for `O=C(OCc1cccc(B2OCc3cc(F)ccc32)c1)c1ccc2cccc(O)c2n1` [PF-06957137, [3-(5-fluoro-2,1-benzoxaborol-1 (3H)-yl)phenyl]methyl 8-hydroxyquinoline-2-carboxylate] was 429 µM.
Consider `Cc1cccnc1N(C(=O)c1ccc([B-](F)(F)F)cc1)[C@@H]1CCCN(C(=O)OC(C)(C)C)C1` [PF-06875313, (4-{[(3R)-1-(tert-butoxycarbonyl)piperidin-3-yl](3-methylpyridin-2-yl)carbamoyl}phenyl)(trifluor ido)borate(1-)], for which, in assay [3], the concentration giving a half-maximal response (EC50) amounted to 360 µM.
Same read-out and setting: the value for `C[C@H]1c2ccc(NC(=O)c3ccc4c(c3)B(O)OC4)c(O)c2C(=O)C2=C(O)[C@]3(O)C(=O)C(C(N)=O)=C(O)[C@@H](N(C)C)[C@@H]3[C@@H](O)[C@@H]21` [PF-06968126, N-[(5R,5aR6S,6aR,7S,10aS)-9-carbamoyl-7-(dimethylamino)-1,6,8,10a,11-pentahydroxy-5-methyl-10,12-dioxo-5,5a,6,6a,7,10,10a,12-octahydrotetracen-2-yl]-1-hydroxy-1,3-dihydro-2,1-benzoxaborole-6-carboxamide] was 393 µM; that for “bis(acetato-kappaO)[1-cyclopropyl-6,7-difluoro-8-methyl-4-(oxo-kappaO)-1,4-dihydroquinoline-3-carboxylato-kappaO]boron [PF-04743686]” was 271 µM.

Broadly, the EC50 is the concentration needed to bring the measured effect to its halfway point.
